How the values were obtained:
[1] = target: DNA-aptamer for vancomycin; test: Titration curve of vancomycin EAB sensor by square-wave voltammetry, dissociation constant of the aptamer; format: binding
Protocol: Each combination of electrode/matrix was electrochemically interrogated via square-wave voltammetry to obtain two set of data: • A frequency map, where the signal-on and signal-off frequencies were determined for a particular amplitude. • A titration curve, where the sensor is interrogated at several concentrations of vancomycin by using the optimal signal-on frequency (responsible for the sensing event).
The titration curve also allowed determination of the dissociation constant of the aptamer in the employed matrix.
• Estart=between −0.5 and −0.4 V • Efinal=between −0.2 and −0.1 V • Eref=Ag|AgCl
• fix A=optimal amplitude (25 mV for vancomycin-in-vitro) • scan f=optimal signal-on value (between 80 and 100 Hz) and signal-off value (lower than 15 Hz)
Reference is made to FIG. 13 showing response of a vancomycin sensitive microelectrode (d=340 μm) in (i) human serum and (artificial ISF including BSA, and globulin as described above). The following equation describes an isotherm that represents the response of the sensing layer to the presence of different concentrations of vancomycin.
Reference is made to FIG. 17, showing data comparing the use of two different mathematical approaches for obtaining KD, which generated consisting fitting.

[2] = Human study: vancomycin in ISF by wearable EAB sensor vs serum; format: in vivo; details: healthy participants, single intravenous infusion 1 gram over 1 hour 40 minutes, ISF measured every 5 minutes
Protocol: These human studies followed vancomycin levels using an EAB sensor (which may also be referred to as the “device”). The device was a self-contained wearable EAB sensor, constructed, having an on-board power supply, electrodes, and electronics, including a microprocessor and BlueTooth™ communications module.
A vancomycin-sensitive EAB sensor was placed onto the participant's upper arm (see FIG. 20), opposite the arm where vancomycin was being infused. The time of device application was recorded. The device was applied 30 minutes (+15 minutes) prior to administering the vancomycin infusion and the device was removed up to 10 hours post-cessation of the infusion.
30 minutes (+15 minutes) post-application of the device, the participant received a single dose of vancomycin as an intravenous infusion (1 gram over 1 hour 40 minutes). The time of administration and completion of infusion was recorded. […]
Square Wave Voltammetry (SWV) was used to interrogate the DNA-based sensor electrodes. […] Use the determined peak currents magnitudes obtained at two different SWV interrogation frequencies (in this case 50 Hz and 300 Hz), when no vancomycin is present and when it is present to calculate an analyte concentration responsive signal(S). • 4. […]

CN[C@H](CC(C)C)C(=O)N[C@H]1C(=O)N[C@@H](CC(N)=O)C(=O)N[C@H]2C(=O)N[C@H]3C(=O)N[C@H](C(=O)N[C@H](C(=O)O)c4cc(O)cc(O)c4-c4cc3ccc4O)[C@H](O)c3ccc(c(Cl)c3)Oc3cc2cc(c3O[C@@H]2O[C@H](CO)[C@@H](O)[C@H](O)[C@H]2O[C@H]2C[C@](C)(N)[C@H](O)[C@H](C)O2)Oc2ccc(cc2Cl)[C@H]1O [vancomycin]
KD ([1]; human serum, smaller sensing area (microelectrode d=170 μm), two mathematical approaches): preserved
KD (the dissociation constant of the DNA aptamer) ([1]; microelectrode d=340 μm, synthetic interstitial fluid containing proteins compared with human serum): similar
vancomycin in the ISF compartment (ISF vs blood) [2]: high variation

From patent US20250303062A1, “Methods for controlling drug administration” (NUTROMICS […] LTD, priority 2022, published 2025)
